Test results published in patent publication US10478437B2, “Combination therapy to enhance the anticancer efficacy of platinum drugs” (University of Pittsburgh-of the Commonwealth System of …, priority 2014, dated 2019).
“Also recorded” adds a separate entry of the source.

Columns and labels:
[1] = system: cisplatin-resistant ovarian cancer cell line A2780cis; assay: Caspase-3/7 activity assay (apoptotic cell death), compound alone or with cisplatin; assay type: cell-based, human; details: for caspase-3/7 activity (Lum) with compound and cisplatin (20 μM) / caspase-3/7 activity (Lum) with compound alone: Table 6; for caspase-3/7 activity (Lum) with compound alone: untreated cells 9 ± 1
How it was run: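 Caspase-3/7 activity in A2780cis cells treated with compound alone or with cisplatin, luminescent Caspase-Glo 3/7 read-out. Apoptotic morphology is checked microscopically just before measurement.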

[2] = system: PEO4, SKOV3, H1299, MDA-MB-231, Ca133 cells; assay: Western blot of PARP and Caspase-3 cleavage in other cisplatin-resistant cancer cells; assay type: cell-based, human; details: 20 h, FIG. 9, in words
Procedure: FIG. 9. The combination of cisplatin and compound 1-6 triggers extensive apoptosis in various types of cisplatin- and multidrug-resistant tumor cells. Cisplatin-resistant cancer cells PEO4 (ovarian), SKOV3 (ovarian), H1299 (lung), MDA-MB-231 (breast), Ca133 (head & neck) were treated with DMSO (untreated), cisplatin (20 μM) alone, compound 1-6 (20 μM) alone, or the combination for 20 h. Cleavage of PARP and Caspase-3 were determined by western blot.
Whole cell lysate was prepared by lysing cells in cell lysis buffer (Cell signaling technology) containing complete protease inhibitor (Roche). Cell lysates were then cleared at 15,000 rpm for 15 min at 4° C. The protein content was quantified using a Bio-Rad Protein Assay kit (Bio-Rad Laboratories, Hercules, Calif.). The equal amount of protein was separated on Tris-glycine gels (Invitrogen). The separated proteins were blotted onto a polyvinylidene difluoride membrane and blocked overnight at 4° C. in phosphate-buffered saline containing 0.1% Tween 20 and 10% nonfat dry milk (blocking buffer). Membranes were incubated with primary antibodies in blocking buffer overnight at 4° C. Primary antibodies used were: β-actin from Sigma; Bax, Bak, Caspase-9 and cleaved Caspase-3 from Cell Signaling Technology; phospho-Histone H2AX (Ser 139) and Noxa from Millipore. Membranes were then washed and incubated in peroxidase conjugated anti-rabbit IgG (Sigma) or anti-mouse IgG (Sigma) secondary antibody for 1 h at room temperature. Membranes were developed using SuperSignal West Femto Maximum Sensitivity Substrate (Thermo Fisher Scientific).
To evaluate whether the synergistic effects of the disclosed compounds and cisplatin could be extended to other types of cancer cells, breast cancer cells (MDA-MB-231), non-small cell lung carcinoma cells (H-1299), ovarian cancer cells (PEO4 and SKOV3) and head and neck cancer cells (Ca133) were treated with various combinations of cisplatin and compound 1-6 and analyzed for Caspase-3.

Structure (SMILES): CCOCCCn1c(=S)[nH]c2c(C)cccc2c1=O [Compound 1-6]
- activation of Caspase-3/7 in combination with cisplatin compared to mdivi-1 ([1]; FIG. 7A and Table 6, in words): more effective; also recorded: more potent than mdivi-1
- caspase-3/7 activity (Lum), compound with cisplatin ([1]; Table 1, compound 20 μM with 20 μM cisplatin, 20 h): 145 ± 6 Lum
- caspase-3/7 activity (Lum), compound alone ([1]; Table 1, compound 20 μM, 20 h, mean ± S.D. of triplicates): 12 ± 0 Lum
- caspase-3/7 activity (Lum), compound alone ([1]; Table 2, compound 20 μM, 20 h): 12 ± 0 Lum
- caspase-3/7 activity (Lum) with compound and cisplatin (20 μM) ([1]; compound 5 μM + cisplatin 20 μM, 20 h): 22 ± 1 Lum
- caspase-3/7 activity (Lum) with compound alone ([1]; compound 5 μM, 20 h): 10 ± 1 Lum
- caspase-3/7 activity (Lum) with compound and cisplatin (20 μM) ([1]; compound 10 μM + cisplatin 20 μM, 20 h): 67 ± 3 Lum
- caspase-3/7 activity (Lum) with compound alone ([1]; compound 10 μM, 20 h): 10 ± 1 Lum
- caspase-3/7 activity (Lum) with compound and cisplatin (20 μM) ([1]; compound 20 μM + cisplatin 20 μM, 20 h): 105 ± 7 Lum
- caspase-3/7 activity (Lum) with compound alone ([1]; compound 20 μM, 20 h): 11 ± 2 Lum
- activity in the screen (Caspase-3/7 activity and microscopic examination), active / inactive ([1]; alone or in the presence of cisplatin, in words): active
- Caspase-3/7 activity upon combination with cisplatin compared to cisplatin alone or compound alone ([1]; in words): increase in Caspase-3/7 activity
- cell death after single compound exposure ([2]; 20 μM alone): minimal effect in inducing cell death
- cleavage of Caspase 3 and PARP, combination with cisplatin ([2]; compound 20 μM + cisplatin 20 μM): cleavage of Caspase 3 and PARP was observed
